# Laboratory results reported in ChEMBL document CHEMBL1201861, “Genomics of Drug Sensitity in Cancer screening data, Wellcome Trust Sanger Institute”.
# What was measured:
# Assay in all cases: cells
# Assay type in all cases: functional, cell-based
# Conditions in all cases: Homo sapiens
# CPC-N = system: CPC-N;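 further: growth inhibition of CPC-N cells, with a cell viability assay as the readout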
# Description: SANGER: Inhibition of human CPC-N cell growth in a cell viability assay.
# Ca9-22 = system: Ca9-22;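 further: growth inhibition of Ca9-22 cells, read out with a cell viability assay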
# Description: SANGER: Inhibition of human Ca9-22 cell growth in a cell viability assay.
# CaR-1 = system: CaR-1;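 further: growth inhibition of human CaR-1 cancer cells, read out with a cell viability assay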
# Description: SANGER: Inhibition of human CaR-1 cell growth in a cell viability assay.
# Capan-2 = system: Capan-2;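 further: Capan-2 cell growth inhibition, read out with a viability assay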
# Description: SANGER: Inhibition of human Capan-2 cell growth in a cell viability assay.
# ChaGo-K-1 = system: ChaGo-K-1;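 further: growth inhibition of ChaGo-K-1 cells, read out with a cell viability assay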
# Description: SANGER: Inhibition of human ChaGo-K-1 cell growth in a cell viability assay.
# D-542MG = system: D-542MG
# Description: SANGER: Inhibition of human D-542MG cell growth in a cell viability assay.
# DBTRG-05MG = system: DBTRG-05MG;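 further: cell viability assay measuring growth inhibition of human DBTRG-05MG cells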
# Description: SANGER: Inhibition of human DBTRG-05MG cell growth in a cell viability assay.
# DOK = system: DOK;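 further: cell viability assay read-out, values reflect inhibition of cell growth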
# Description: SANGER: Inhibition of human DOK cell growth in a cell viability assay.
# EB2 = system: EB2;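 further: growth inhibition of EB2 cells, read out with a cell viability assay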
# Description: SANGER: Inhibition of human EB2 cell growth in a cell viability assay.
# EFO-21 = system: EFO-21;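 further: growth inhibition of EFO-21 cells measured with a viability assay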
# Description: SANGER: Inhibition of human EFO-21 cell growth in a cell viability assay.
# HCC2157 = system: HCC2157;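 further: growth inhibition of the cancer cell line, read out as cell viability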
# Description: SANGER: Inhibition of human HCC2157 cell growth in a cell viability assay.
# HCC 2998 = system: HCC 2998;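 further: growth inhibition of human HCC2998 cells, measured with a cell viability read-out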
# Description: SANGER: Inhibition of human HCC2998 cell growth in a cell viability assay.
# HCC70 = system: HCC70;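 further: cell viability assay measuring how strongly the compound suppresses proliferation of HCC70 cells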
# Description: SANGER: Inhibition of human HCC70 cell growth in a cell viability assay.
# HCT-116 = system: HCT-116
# Description: SANGER: Inhibition of human HCT-116 cell growth in a cell viability assay.
# HCT-15 = system: HCT-15;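 further: cell viability readout, IC50 reflecting suppression of HCT-15 cell growth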
# Description: SANGER: Inhibition of human HCT-15 cell growth in a cell viability assay.
# HMV-2 cell line = system: HMV-2 cell line;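 further: growth inhibition of HMV-II cells, read out with a cell viability assay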
# Description: SANGER: Inhibition of human HMV-II cell growth in a cell viability assay.
# Huh-7 = system: Huh-7;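 further: HuH-7 cell growth inhibition, read out with a cell viability assay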
# Description: SANGER: Inhibition of human HuH-7 cell growth in a cell viability assay.
# HuO-3N1 = system: HuO-3N1;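 further: cell viability readout used to measure how strongly compounds suppress proliferation of human HuO-3N1 cells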
# Description: SANGER: Inhibition of human HuO-3N1 cell growth in a cell viability assay.
# JEG-3 = system: JEG-3;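 further: growth inhibition of human JEG-3 cells, read out with a cell viability assay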
# Description: SANGER: Inhibition of human JEG-3 cell growth in a cell viability assay.
# KP-4 = system: KP-4;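 further: human KP-4 cells, with growth inhibition read out through a cell viability assay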
# Description: SANGER: Inhibition of human KP-4 cell growth in a cell viability assay.
# LCLC-97TM1 = system: LCLC-97TM1;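 further: cell viability assay measuring growth inhibition of human LCLC-97TM1 cells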
# Description: SANGER: Inhibition of human LCLC-97TM1 cell growth in a cell viability assay.
# MC-IXC = system: MC-IXC;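 further: growth inhibition of MC-IXC cells, read out with a cell viability assay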
# Description: SANGER: Inhibition of human MC-IXC cell growth in a cell viability assay.
# MDA-MB-453 = system: MDA-MB-453
# Description: SANGER: Inhibition of human MDA-MB-453 cell growth in a cell viability assay.
# ME-180 = system: ME-180;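 further: cell viability assay measuring growth inhibition of ME-180 cells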
# Description: SANGER: Inhibition of human ME-180 cell growth in a cell viability assay.
# MHH-ES-1 = system: MHH-ES-1;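 further: cell growth inhibition measured by a cell viability assay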
# Description: SANGER: Inhibition of human MHH-ES-1 cell growth in a cell viability assay.
# MKN-28 = system: MKN-28;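 further: cell viability assay read-out, IC50 reflects suppression of growth of human MKN-28 cells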
# Description: SANGER: Inhibition of human MKN28 cell growth in a cell viability assay.
# MRK-nu-1 = system: MRK-nu-1;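 further: cell viability assay measuring growth suppression of human MRK-nu-1 cells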
# Description: SANGER: Inhibition of human MRK-nu-1 cell growth in a cell viability assay.
# NCI-H1437 = system: NCI-H1437;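 further: growth inhibition of human NCI-H1437 cells, read out by a cell viability assay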
# Description: SANGER: Inhibition of human NCI-H1437 cell growth in a cell viability assay.
# NCI-H1522 = system: NCI-H1522;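 further: growth inhibition of NCI-H1522 cells, read out with a cell viability assay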
# Description: SANGER: Inhibition of human NCI-H1522 cell growth in a cell viability assay.
# NCI-H1563 = system: NCI-H1563;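 further: growth inhibition of human NCI-H1563 cells, read out with a cell viability assay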
# Description: SANGER: Inhibition of human NCI-H1563 cell growth in a cell viability assay.
# NCI-H1651 = system: NCI-H1651;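 further: Read-out is a cell viability assay, with IC50 expressing inhibition of NCI-H1651 cell growth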
# Description: SANGER: Inhibition of human NCI-H1651 cell growth in a cell viability assay.
# NCI-H1882 = system: NCI-H1882;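 further: growth inhibition of the cell line, determined with a viability assay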
# Description: SANGER: Inhibition of human NCI-H1882 cell growth in a cell viability assay.
# NCI-H2122 = system: NCI-H2122;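 further: growth inhibition of the cells, read out with a cell viability assay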
# Description: SANGER: Inhibition of human NCI-H2122 cell growth in a cell viability assay.
# NCI-H2196 = system: NCI-H2196;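 further: cell viability assay used as the readout of growth inhibition in NCI-H2196 cells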
# Description: SANGER: Inhibition of human NCI-H2196 cell growth in a cell viability assay.
# NCI-H2347 = system: NCI-H2347;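 further: growth inhibition of the cell line, read out with a cell viability assay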
# Description: SANGER: Inhibition of human NCI-H2347 cell growth in a cell viability assay.
# NCI-H28 = system: NCI-H28;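 further: growth inhibition of human NCI-H28 cells, read out as cell viability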
# Description: SANGER: Inhibition of human NCI-H28 cell growth in a cell viability assay.
# NCI-H522 = system: NCI-H522;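 further: cell viability assay measuring growth inhibition of human NCI-H522 cells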
# Description: SANGER: Inhibition of human NCI-H522 cell growth in a cell viability assay.
# NCI-H524 = system: NCI-H524;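 further: growth inhibition of human NCI-H524 cells, read out through a cell viability assay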
# Description: SANGER: Inhibition of human NCI-H524 cell growth in a cell viability assay.
# NCI-H650 = system: NCI-H650;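 further: growth inhibition of NCI-H650 cells, read out by a viability assay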
# Description: SANGER: Inhibition of human NCI-H650 cell growth in a cell viability assay.
# NCI-H810 = system: NCI-H810;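 further: IC50 reflects inhibition of cancer cell line growth, read out with a cell viability assay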
# Description: SANGER: Inhibition of human NCI-H810 cell growth in a cell viability assay.
# NCI-H889 = system: NCI-H889;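 further: cell growth inhibition of the cell line, read out with a viability assay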
# Description: SANGER: Inhibition of human NCI-H889 cell growth in a cell viability assay.
# OAW-28 = system: OAW-28;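 further: growth inhibition of OAW-28 cells, read out with a cell viability assay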
# Description: SANGER: Inhibition of human OAW-28 cell growth in a cell viability assay.
# OAW-42 = system: OAW-42;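 further: growth inhibition of OAW-42 cells, read out with a cell viability assay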
# Description: SANGER: Inhibition of human OAW-42 cell growth in a cell viability assay.
# PC-3 = system: PC-3;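 further: cell viability assay measuring growth inhibition of PC-3 cells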
# Description: SANGER: Inhibition of human PC-3 cell growth in a cell viability assay.
# REH = system: REH;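 further: growth inhibition of REH cells determined with a cell viability read-out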
# Description: SANGER: Inhibition of human REH cell growth in a cell viability assay.
# RO82-W-1 = system: RO82-W-1;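 further: growth inhibition of human RO82-W-1 cells, measured with a cell viability assay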
# Description: SANGER: Inhibition of human RO82-W-1 cell growth in a cell viability assay.
# SBC-5 = system: SBC-5;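 further: cell viability assay read-out, IC50 is the concentration that inhibits growth of the cells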
# Description: SANGER: Inhibition of human SBC-5 cell growth in a cell viability assay.
# SK-MEL-24 = system: SK-MEL-24;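 further: growth inhibition read out by a cell viability assay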
# Description: SANGER: Inhibition of human SK-MEL-24 cell growth in a cell viability assay.
# SK-N-AS = system: SK-N-AS;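 further: growth inhibition of human SK-N-AS cells, measured with a cell viability assay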
# Description: SANGER: Inhibition of human SK-N-AS cell growth in a cell viability assay.
# SNU-C1 = system: SNU-C1;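 further: growth inhibition of SNU-C1 human cells, read out by a cell viability assay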
# Description: SANGER: Inhibition of human SNU-C1 cell growth in a cell viability assay.
# SW1573 = system: SW1573
# Description: SANGER: Inhibition of human SW1573 cell growth in a cell viability assay.
# SW1783 = system: SW1783
# Description: SANGER: Inhibition of human SW1783 cell growth in a cell viability assay.
# SW948 = system: SW948
# Description: SANGER: Inhibition of human SW948 cell growth in a cell viability assay.
# SiHa = system: SiHa
# Description: SANGER: Inhibition of human SiHa cell growth in a cell viability assay.
# T47D = system: T47D
# Description: SANGER: Inhibition of human T47D cell growth in a cell viability assay.
# 786-0 = system: 786-0
# Description: SANGER: Inhibition of human 786-0 cell growth in a cell viability assay.
# ACHN = system: ACHN
# Description: SANGER: Inhibition of human ACHN cell growth in a cell viability assay.
# CAL-54 = system: CAL-54
# Description: SANGER: Inhibition of human CAL-54 cell growth in a cell viability assay.
# CAL-85-1 = system: CAL-85-1
# Description: SANGER: Inhibition of human CAL-85-1 cell growth in a cell viability assay.
# TE-15 = system: TE-15
# Description: SANGER: Inhibition of human TE-15 cell growth in a cell viability assay.
# UACC-62 = system: UACC-62
# Description: SANGER: Inhibition of human UACC-62 cell growth in a cell viability assay.
# UACC-812 = system: UACC-812
# Description: SANGER: Inhibition of human UACC-812 cell growth in a cell viability assay.
# YT = system: YT
# Description: SANGER: Inhibition of human YT cell growth in a cell viability assay.
# COLO-679 = system: COLO-679
# Description: SANGER: Inhibition of human COLO-679 cell growth in a cell viability assay.
# COLO-680N = system: COLO-680N
# Description: SANGER: Inhibition of human COLO-680N cell growth in a cell viability assay.
smiles,measurement,setting,value
O=c1[nH]c2ccccc2n1C1CCN(Cc2ccc(-c3nc4cc5[nH]cnc5cc4nc3-c3ccccc3)cc2)CC1,IC50,CPC-N,> 2.56 µM
same,IC50,Ca9-22,> 2.56 µM
same,IC50,CaR-1,> 2.56 µM
same,IC50,Capan-2,> 2.56 µM
same,IC50,ChaGo-K-1,> 2.56 µM
same,IC50,D-542MG,> 2.56 µM
same,IC50,DBTRG-05MG,> 2.56 µM
same,IC50,DOK,> 2.56 µM
same,IC50,EB2,> 2.56 µM
same,IC50,EFO-21,> 2.56 µM
same,IC50,HCC2157,> 2.56 µM
same,IC50,HCC 2998,> 2.56 µM
same,IC50,HCC70,0.751 µM
same,IC50,HCT-116,> 2.56 µM
same,IC50,HCT-15,> 2.56 µM
same,IC50,HMV-2 cell line,> 2.56 µM
same,IC50,Huh-7,> 2.56 µM
same,IC50,HuO-3N1,> 2.56 µM
same,IC50,JEG-3,> 2.56 µM
same,IC50,KP-4,> 2.56 µM
same,IC50,LCLC-97TM1,2.3 µM
same,IC50,MC-IXC,2.06 µM
same,IC50,MDA-MB-453,> 2.56 µM
same,IC50,ME-180,> 2.56 µM
same,IC50,MHH-ES-1,> 2.56 µM
same,IC50,MKN-28,> 2.56 µM
same,IC50,MRK-nu-1,> 2.56 µM
same,IC50,NCI-H1437,> 2.56 µM
same,IC50,NCI-H1522,> 2.56 µM
same,IC50,NCI-H1563,0.542 µM
same,IC50,NCI-H1651,> 2.56 µM
same,IC50,NCI-H1882,> 2.56 µM
same,IC50,NCI-H2122,> 2.56 µM
same,IC50,NCI-H2196,> 2.56 µM
same,IC50,NCI-H2347,> 2.56 µM
same,IC50,NCI-H28,> 2.56 µM
same,IC50,NCI-H522,> 2.56 µM
same,IC50,NCI-H524,> 2.56 µM
same,IC50,NCI-H650,> 2.56 µM
same,IC50,NCI-H810,> 2.56 µM
same,IC50,NCI-H889,> 2.56 µM
same,IC50,OAW-28,> 2.56 µM
same,IC50,OAW-42,> 2.56 µM
same,IC50,PC-3,> 2.56 µM
same,IC50,REH,> 2.56 µM
same,IC50,RO82-W-1,> 2.56 µM
same,IC50,SBC-5,> 2.56 µM
same,IC50,SK-MEL-24,> 2.56 µM
same,IC50,SK-N-AS,> 2.56 µM
same,IC50,SNU-C1,2.01 µM
same,IC50,SW1573,> 2.56 µM
same,IC50,SW1783,> 2.56 µM
same,IC50,SW948,> 2.56 µM
same,IC50,SiHa,> 2.56 µM
same,IC50,T47D,0.516 µM
same,IC50,786-0,1.1 µM
same,IC50,ACHN,> 2.56 µM
same,IC50,CAL-54,> 2.56 µM
same,IC50,CAL-85-1,> 2.56 µM
same,IC50,TE-15,> 2.56 µM
same,IC50,UACC-62,> 2.56 µM
same,IC50,UACC-812,> 2.56 µM
same,IC50,YT,> 2.56 µM
same,IC50,COLO-679,> 2.56 µM
same,IC50,COLO-680N,> 2.56 µM
Fc1cc(-c2cc[nH]/c(=N/c3ccc(-n4cnc(N5CCOCC5)n4)cc3)n2)cc(N2CCOCC2)c1,IC50,CPC-N,4.22 µM
same,IC50,Ca9-22,0.389 µM
same,IC50,CaR-1,1.88 µM
same,IC50,Capan-2,1.01 µM
same,IC50,ChaGo-K-1,1.37 µM
same,IC50,D-542MG,0.357 µM
same,IC50,DBTRG-05MG,0.75 µM
same,IC50,DOK,0.858 µM
same,IC50,EB2,0.581 µM
same,IC50,EFO-21,0.913 µM
same,IC50,HCC2157,0.494 µM
same,IC50,HCC 2998,2.03 µM
same,IC50,HCC70,0.35 µM
same,IC50,HCT-116,0.164 µM
same,IC50,HCT-15,0.258 µM
same,IC50,HMV-2 cell line,0.151 µM
same,IC50,Huh-7,0.756 µM
same,IC50,HuO-3N1,1.57 µM
same,IC50,JEG-3,0.705 µM
same,IC50,KP-4,0.577 µM
same,IC50,LCLC-97TM1,0.163 µM
same,IC50,MC-IXC,0.127 µM
same,IC50,MDA-MB-453,> 5.12 µM
same,IC50,ME-180,1.41 µM
same,IC50,MHH-ES-1,0.274 µM
same,IC50,MKN-28,0.301 µM
same,IC50,MRK-nu-1,0.545 µM
same,IC50,NCI-H1437,0.243 µM
same,IC50,NCI-H1522,0.889 µM
same,IC50,NCI-H1563,0.32 µM
same,IC50,NCI-H1651,1.07 µM
same,IC50,NCI-H1882,1.08 µM
same,IC50,NCI-H2122,0.238 µM
same,IC50,NCI-H2196,0.786 µM
same,IC50,NCI-H2347,1.02 µM
same,IC50,NCI-H28,0.34 µM
same,IC50,NCI-H522,0.887 µM
same,IC50,NCI-H524,> 5.12 µM
same,IC50,NCI-H650,0.141 µM
same,IC50,NCI-H810,0.208 µM
same,IC50,NCI-H889,2.26 µM
same,IC50,OAW-28,1.45 µM
same,IC50,OAW-42,0.877 µM
same,IC50,PC-3,4.55 µM
same,IC50,REH,0.722 µM
same,IC50,RO82-W-1,> 5.12 µM
same,IC50,SBC-5,0.398 µM
same,IC50,SK-MEL-24,> 5.12 µM
same,IC50,SK-N-AS,1.21 µM
same,IC50,SNU-C1,0.39 µM
same,IC50,SW1573,0.881 µM
same,IC50,SW1783,0.428 µM
same,IC50,SW948,0.835 µM
same,IC50,SiHa,1.11 µM
same,IC50,T47D,> 5.12 µM
same,IC50,786-0,0.228 µM
same,IC50,ACHN,0.886 µM
same,IC50,CAL-54,1.88 µM
same,IC50,CAL-85-1,0.881 µM
same,IC50,TE-15,0.375 µM
same,IC50,UACC-62,0.37 µM
same,IC50,UACC-812,4.42 µM
same,IC50,YT,0.204 µM
same,IC50,COLO-679,0.25 µM
same,IC50,COLO-680N,0.565 µM
